Data: patent US20230357320A1, “HELICAL STAPLED PEPTIDES AND USES THEREOF” (FOG PHARMACEUTICALS, INC., priority 2020, published 2023)
Starred links: 1 amine or outer side, 2 acyl side, 3 side chain; linkers in the order of their positions; H or OH if unused. Positions of bridges follow the written chain, without caps; N, C: chain ends. Non-standard residues stand in square brackets, D forms with d. Residues, ends and D or L forms follow the SMILES beside them. X1 = O=C([C@]1(CC=[*:3])CCCN1[*:1])[*:2]; αAllylPro = C=CC[C@@]1(C(=O)O)CCCN1; Ala(cPr) = N[C@@H](CC1CC1)C(=O)O; S5 = C=CCCC[C@](C)(N)C(=O)O

Tests used:
[1] = for % Retention: PAMPA
Method: (§1) The synthesized peptides were first analyzed with a PAMPA assay. […] The PAMPA plate system is composed of two compartments, donor and acceptor, which are separated by a phospholipid-infused membrane. The amount of compound transferred from the acceptor well into the donor well over a period of incubation time is used to determine the passive permeability of a compound.
(§2) The two plates are separated by a membrane infused with phospholipids. […] The amount of compound transferred from one well to the other is usually quantified by reverse-phase HPLC-mass spectrometry.
(§3) Briefly, all PAMPA assays were performed using the commercially available PAMPA plate system from Corning, which uses a proprietary membrane composed of structured phospholipids. […] To prevent nonspecific peptide loss to the plates, the acceptor wells of the Corning PAMPA plates were blocked overnight with 5% nonfat milk with 0.1% Triton X-100 in Dulbecco's phosphate buffer saline (DPBS) at pH=7.4, followed by extensive washing prior to assays. The donor wells and membrane itself were not exposed to the milk/Triton solution. […] The PAMPA experiments described herein were performed using plates from Corning Lot #9112010, Lot #9112011 and Lot #7317005 (Corning Inc., Corning, New York, USA).
(§4) To set up PAMPA assays, the PAMPA plate system was equilibrated at room temperature for at least an hour before setting up the assay. The acceptor plate preincubated with milk blocking solution was washed with water, followed by DPBS buffer. 300 μL of 5% DMSO in DPBS at pH=7.4 was added to the pre-blocked acceptor plate, and 200 μL of 10M compounds made with 5% DMSO in DPBS at pH=7.4 was added to the donor plate. The donor plate with a lid was then carefully inserted into the acceptor plate with no bubbles formed at the interface of donor and acceptor plates. The PAMPA assay plate was covered with aluminum foil and placed in a 37° C. incubator for 5 hours. 10 M input solution of all compounds was diluted 20-fold to a final acetonitrile concentration of 50% before analyzing by reverse-phase HPLC and Q-Exactive plus mass spectrometer. At the end of 5 hours, PAMPA donor and acceptor plates were separated and diluted 20-fold and 2-fold respectively to a final acetonitrile concentration of 50%. The diluted solutions of PAMPA donor and acceptor plates were analyzed by reverse-phase HPLC and Q-Exactive plus mass spectrometer.
(§5) Pe measures the passive permeability of each compound tested in the PAMPA assay, whereas % retention measures the amount of compound retained in solution at the end of the assay compared to the input sample.

[2] = in vitro; set-up: dose or concentration left out as unconfirmed; conditions: PAMPA, pH 7.4, PAMPA Pe
Method: as §1, §2, §3, §4, §5

[3] = CHI Log D measurement (chromatographic hydrophobicity index); conditions: pH 7.4
[4] = reverse-phase HPLC, Phenomenex Gemini C-18 column
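For % Retention in this document: Phospholipid-membrane PAMPA, donor and acceptor in DPBS pH 7.4 with 5% DMSO, 37 °C for 5 h, compound in each well quantified by reverse-phase HPLC-MS.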
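For PAMPA Pe (text) in this document: Phospholipid-membrane PAMPA, donor and acceptor in DPBS pH 7.4 with 5% DMSO, 37 °C for 5 h, compound in each well quantified by reverse-phase HPLC-MS.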
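For Papp in this document: Phospholipid-membrane PAMPA, donor and acceptor in DPBS pH 7.4 with 5% DMSO, 37 °C for 5 h, compound in each well quantified by reverse-phase HPLC-MS.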

| SMILES | % Retention [1] [%] | Papp at 5 h [2] [×10⁻⁶ cm/s] | chromatographic logD [3] | chromatographic logD [3, 4] | PAMPA Pe (text) [1] [×10⁻⁶ cm/s] |
| --- | --- | --- | --- | --- | --- |
| CNC(=O)[C@H](CC(=O)O)NC(=O)[C@H](CC(C)C)NC(=O)[C@H](CC(C)C)NC(=O)[C@H](Cc1ccc(O)cc1)NC(=O)[C@]1(C)CCCC=CCCC[C@](C)(NC(C)=O)C(=O)N[C@@H](C)C(=O)N[C@@H](CC(C)C)C(=O)N[C@@H](CC(C)C)C(=O)N1 [PLL4-10 variant 4, Ac-S5-Ala-Leu-Leu-S5-Tyr-Leu-Leu-Asp-NHMe] (Ac-[S5]ALL[S5]YLLD-NHMe; staple 1-5) | 74 ± 6 | ≤ 0.1 | 2.9 |  |  |
| C=CCCC[C@](C)(NC(=O)[C@H](CC(C)C)NC(=O)[C@H](CC(C)C)NC(=O)[C@]1(CC=C)CCCN1C(C)=O)C(=O)N[C@@H](Cc1ccc(O)cc1)C(=O)N[C@@H](CC(C)C)C(=O)N[C@@H](CC(C)C)C(=O)N[C@@H](CC(=O)O)C(=O)NC [PLL4-10 variant 5, Ac-PL3-Leu-Leu-S5-Tyr-Leu-Leu-Asp-NHMe] (Ac-[αAllylPro]LL[S5]YLLD-NHMe) | 70 ± 2 | 0.2 ± 0.1 | 2.8 |  |  |
| CNC(=O)[C@H](Cc1ccc(O)cc1)NC(=O)[C@H](CC(=O)O)NC(=O)[C@H](CC(C)C)NC(=O)[C@H](CC(C)C)NC(=O)[C@H](Cc1ccc(O)cc1)NC(=O)[C@]1(C)CCCC=CC[C@]2(CCCN2C(C)=O)C(=O)N[C@@H](CC(C)C)C(=O)N[C@@H](CC(C)C)C(=O)N1 [PLL5-1, Ac-PL3-Leu-Leu-S5-Tyr-Leu-Leu-Asp-Tyr-NHMe] (Ac-[X1]LL[S5]YLLDY-NHMe; staple 1-4) | 36 ± 1 | ≤ 0.1 |  | 2.4 |  |
| C=CCCC[C@](C)(NC(=O)[C@H](CC(C)C)NC(=O)[C@H](CC(C)C)NC(=O)[C@]1(CC=C)CCCN1C(C)=O)C(=O)N[C@@H](Cc1ccc(O)cc1)C(=O)N[C@@H](CC(C)C)C(=O)N[C@@H](CC(C)C)C(=O)N[C@@H](CC(=O)O)C(=O)N[C@@H](CC(=O)O)C(=O)NC [PLL5-2 variant 5, Ac-PL3-Leu-Leu-S5-Tyr-Leu-Leu-Asp-Asp-NHMe] (Ac-[αAllylPro]LL[S5]YLLDD-NHMe) | 90 ± 3 | 1.7 ± 0.4 | 1.8 |  | 1.7 |
| CNC(=O)[C@H](Cc1ccc(O)cc1)NC(=O)[C@H](CCC(N)=O)NC(=O)[C@H](CC(C)C)NC(=O)[C@H](CC(C)C)NC(=O)[C@H](Cc1ccc(O)cc1)NC(=O)[C@]1(C)CCCC=CC[C@]2(CCCN2C(C)=O)C(=O)N[C@@H](CC(C)C)C(=O)N[C@@H](CC(C)C)C(=O)N1 [PLL5-3, Ac-PL3-Leu-Leu-S5-Tyr-Leu-Leu-Gln-Tyr-NHMe] (Ac-[X1]LL[S5]YLLQY-NHMe; staple 1-4) | 83 ± 1 | ≤ 0.1 |  | 3.5 |  |
| CNC(=O)[C@H](CCC(N)=O)NC(=O)[C@H](CC(C)C)NC(=O)[C@H](CC(C)C)NC(=O)[C@H](Cc1ccc(O)cc1)NC(=O)[C@]1(C)CCCC=CC[C@]2(CCCN2C(C)=O)C(=O)N[C@@H](CC(C)C)C(=O)N[C@@H](CC(C)C)C(=O)N1 [PLL5-12, Ac-PL3-Leu-Leu-S5-Tyr-Leu-Leu-Gln-NHMe] (Ac-[X1]LL[S5]YLLQ-NHMe; staple 1-4) | 97 ± 1 | ≤ 0.1 |  | 3.2 |  |
| CNC(=O)[C@H](CC(=O)O)NC(=O)[C@H](CCC(N)=O)NC(=O)[C@H](CC(C)C)NC(=O)[C@H](CC(C)C)NC(=O)[C@H](Cc1ccc(O)cc1)NC(=O)[C@]1(C)CCCC=CCCC[C@](C)(NC(C)=O)C(=O)N[C@@H](C)C(=O)N[C@@H](CC2CC2)C(=O)N[C@@H](CC(C)C)C(=O)N1 [PLL7-7 variant 4, Ac-S5-Ala-Cpa-Leu-S5-Tyr-Leu-Leu-Gln-Asp-NHMe] (Ac-[S5]A[Ala(cPr)]L[S5]YLLQD-NHMe; staple 1-5) | 75 ± 1 | ≤ 0.1 | 2.4 |  |  |
| C=CCCC[C@](C)(NC(=O)[C@H](CC(C)C)NC(=O)[C@H](CC1CC1)NC(=O)[C@]1(CC=C)CCCN1C(C)=O)C(=O)N[C@@H](Cc1ccc(O)cc1)C(=O)N[C@@H](CC(C)C)C(=O)N[C@@H](CC(C)C)C(=O)N[C@@H](CCC(N)=O)C(=O)N[C@@H](CC(=O)O)C(=O)NC [PLL7-7 variant 5, Ac-PL3-Cpa-Leu-S5-Tyr-Leu-Leu-Gln-Asp-NHMe] (Ac-[αAllylPro][Ala(cPr)]L[S5]YLLQD-NHMe) | 84 ± 2 | 0.3 ± 0.1 | 2.3 |  |  |
| CNC(=O)[C@H](CC(=O)O)NC(=O)[C@H](Cc1c[nH]cn1)NC(=O)[C@H](CC(C)C)NC(=O)[C@H](CC(C)C)NC(=O)[C@H](CCCNC(=N)N)NC(=O)[C@]1(C)CCCC=CCCC[C@](C)(NC(C)=O)C(=O)N[C@@H](C)C(=O)N[C@@H](CC(C)C)C(=O)N[C@@H](CC(C)C)C(=O)N1 [PLL7-9 variant 4, Ac-S5-Ala-Leu-Leu-S5-Arg-Leu-Leu-His-Asp-NHMe] (Ac-[S5]ALL[S5]RLLHD-NHMe; staple 1-5) | 101 ± 24 | ≤ 0.1 | 2.7 |  |  |
| C=CCCC[C@](C)(NC(=O)[C@H](CC(C)C)NC(=O)[C@H](CC(C)C)NC(=O)[C@]1(CC=C)CCCN1C(C)=O)C(=O)N[C@@H](CCCNC(=N)N)C(=O)N[C@@H](CC(C)C)C(=O)N[C@@H](CC(C)C)C(=O)N[C@@H](Cc1c[nH]cn1)C(=O)N[C@@H](CC(=O)O)C(=O)NC [PLL7-9 variant 5, Ac-PL3-Leu-Leu-S5-Arg-Leu-Leu-His-Asp-NHMe] (Ac-[αAllylPro]LL[S5]RLLHD-NHMe) | 91 ± 2 | 0.5 ± 0.1 | 2.5 |  |  |
| CNC(=O)[C@H](CC(N)=O)NC(=O)[C@H](CC(C)C)NC(=O)[C@H](CC(C)C)NC(=O)[C@H](Cc1c[nH]cn1)NC(=O)[C@]1(C)CCCC=CCCC[C@](C)(NC(C)=O)C(=O)N[C@@H](C)C(=O)N[C@@H](C)C(=O)N[C@@H](CC(C)C)C(=O)N1 [PLL7-20 variant 4, Ac-S5-Ala-Ala-Leu-S5-His-Leu-Leu-Asn-NHMe] (Ac-[S5]AAL[S5]HLLN-NHMe; staple 1-5) | 74 ± 6 | ≤ 0.1 | 2.6 |  |  |
| C=CCCC[C@](C)(NC(=O)[C@H](CC(C)C)NC(=O)[C@H](C)NC(=O)[C@]1(CC=C)CCCN1C(C)=O)C(=O)N[C@@H](Cc1c[nH]cn1)C(=O)N[C@@H](CC(C)C)C(=O)N[C@@H](CC(C)C)C(=O)N[C@@H](CC(N)=O)C(=O)NC [PLL7-20 variant 5, Ac-PL3-Ala-Leu-S5-His-Leu-Leu-Asn-NHMe] (Ac-[αAllylPro]AL[S5]HLLN-NHMe) | 88 ± 4 | 0.3 ± 0.1 | 2.7 |  |  |
